The source made the active and inactive calls. The rule behind the calls is not given here.
Legend:
Homo sapiens [1] = species on record: Homo sapiens; assay: Antiproliferative activity against human RC-58T/h/SA#4 cells at >= 30 uM SRB assay; type: functional, cell-based; details: TDE = time-dependent effect
Homo sapiens [2] = species on record: Homo sapiens; assay: Antiproliferative activity against human RC-58T/h/SA#4 cells after 24 to 72 hrs SRB assay; type: functional, cell-based
Homo sapiens [3] = species on record: Homo sapiens; assay: Antiproliferative activity against human RC-58T/h/SA#4 cells assessed as decrease in viable cells by trypan blue assay; type: functional, cell-based
Homo sapiens [4] = species on record: Homo sapiens; assay: Induction of apoptosis in human RC-58T/h/SA#4 cells assessed as increase in sub-G1 DNA content after 24 hrs by flow cytometry; type: functional, cell-based
[5] = Induction of apoptosis in human RC-58T/h/SA#4 cells assessed as increase in sub-G1 DNA content at 10 ug/ml after 24 hrs by flow cytometry; type: functional
[6] = Induction of apoptosis in human RC-58T/h/SA#4 cells assessed as increase in sub-G1 DNA content at 20 ug/ml after 24 hrs by flow cytometry; type: functional
[7] = Induction of apoptosis in human RC-58T/h/SA#4 cells assessed as increase in sub-G1 DNA content at 30 ug/ml after 24 hrs by flow cytometry; type: functional
[8] = Induction of apoptosis in human RC-58T/h/SA#4 cells assessed as increase in sub-G1 DNA content at 40 ug/ml after 24 hrs by flow cytometry; type: functional
Homo sapiens [9] = species on record: Homo sapiens; assay: Induction of apoptosis in human RC-58T/h/SA#4 cells assessed as chromatin condensation at 30 to 40 uM after 24 hrs by Hoechst 33258 staining; type: functional, cell-based
Homo sapiens [10] = species on record: Homo sapiens; assay: Induction of apoptosis in human RC-58T/h/SA#4 cells assessed as nuclear fragmentation at 30 to 40 uM after 24 hrs by Hoechst 33258 staining; type: functional, cell-based
Homo sapiens [11] = species on record: Homo sapiens; assay: Induction of apoptosis in human RC-58T/h/SA#4 cells assessed as DNA fragmentation ladder at 30 to 40 uM after 24 hrs by agarose gel electrophoresis; type: functional, cell-based
[12] = Induction of apoptosis in human RC-58T/h/SA#4 cells assessed as caspase 8 activation at 40 uM by fluorometric protease assay relative to control; type: functional
[13] = Induction of apoptosis in human RC-58T/h/SA#4 cells assessed as caspase 9 activation at 40 uM by fluorometric protease assay relative to control; type: functional
[14] = Induction of apoptosis in human RC-58T/h/SA#4 cells assessed as caspase 3 activation at 40 uM by fluorometric protease assay relative to control; type: functional
Homo sapiens [15] = species on record: Homo sapiens; assay: Induction of apoptosis in human RC-58T/h/SA#4 cells assessed as PARP cleavage by Western blot analysis; type: functional, cell-based
Homo sapiens [16] = species on record: Homo sapiens; assay: Induction of apoptosis in human RC-58T/h/SA#4 cells assessed as PARP cleavage by Western blot analysis in presence of 10 uM Z-VAD-fmk caspase inhibitor; type: functional, cell-based
Homo sapiens [17] = species on record: Homo sapiens; assay: Induction of apoptosis in human RC-58T/h/SA#4 cells assessed as increase in pro-apoptotic protein Bax at 30 to 40 uM by Western blot analysis; type: functional, cell-based
Homo sapiens [18] = species on record: Homo sapiens; assay: Induction of apoptosis in human RC-58T/h/SA#4 cells assessed as decrease in anti-apoptotic protein Bcl-2 at 30 to 40 uM by Western blot analysis; type: functional, cell-based
Homo sapiens [19] = species on record: Homo sapiens; assay: Induction of apoptosis in human RC-58T/h/SA#4 cells assessed as caspase 8-mediated Bid protein cleavage at 30 to 40 uM by Western blot analysis; type: functional, cell-based
Homo sapiens [20] = species on record: Homo sapiens; assay: Induction of apoptosis in human RC-58T/h/SA#4 cells assessed as AIF translocation into nucleus at 30 to 40 uM by Western blot analysis; type: functional, cell-based

## C[C@H]1[C@H](C)CC[C@]2(C(=O)O)CC[C@]3(C)C(=CC[C@@H]4[C@@]5(C)CC[C@H](O)C(C)(C)[C@@H]5CC[C@]43C)[C@H]12 [URSOLIC ACID]
Homo sapiens [1]
  Activity: tde
Homo sapiens [2]
  Activity: Dose-dependent effect
Homo sapiens [3]
  Activity: Dose-dependent effect
Homo sapiens [4]
  Activity: Dose-dependent effect
[5]
  Activity: 5.41%
[6]
  Activity: 20.83%
[7]
  Activity: 48.1%
[8]
  Activity: 58.6%
Homo sapiens [9]
  Activity: Active
Homo sapiens [10]
  Activity: Active
Homo sapiens [11]
  Activity: Active
[12]
  fold change (FC): 1.8
[13]
  fold change (FC): 1.1
[14]
  fold change (FC): 1.8
Homo sapiens [15]
  Activity: Active
Homo sapiens [16]
  Activity: inactive
Homo sapiens [17]
  Activity: Active
Homo sapiens [18]
  Activity: Active
Homo sapiens [19]
  Activity: Active
Homo sapiens [20]
  Activity: Active

From ChEMBL document CHEMBL1268996, “Apoptotic action of ursolic acid isolated from Corni fructus in RC-58T/h/SA#4 primary human prostate cancer cells” (2010)
